Laboratory results reported in patent US20240366511A1, “ORAL SOLID DOSE FORMULATIONS” (GLAXOSMITHKLINE INTELLECTUAL PROPERTY DEVELOPMENT LIMITED, priority 2021, published 2024).
Where a name gives a salt, the structure may show the parent alone. Read-outs that look alike come from different tables or passages of the source.

Tests used:
[1] = Stability of crystal form under ambient conditions; format: physicochemical
Experimental: In another preparation, a spatula (<20 mg) of gepotidacin mesylate dihydrate (Form 1) was suspended in IPA (<1.5 ml). The suspension was heated with a heat gun to dissolve most of the solids, and then left to slowly cool to room temperature. The resultant crystals were filtered and analysed by DSC, TGA, and XRPD.

[2] = Solubility of gepotidacin mesylate dihydrate (Form 1) in water and simulated fluids; format: physicochemical; conditions: 20 °C, thermodynamic from solid, as free base, 20-25° C., read-out: Solubility (mg/mL of free base at 20-25° C.)
Experimental: The solubility of gepotidacin mesylate dihydrate (Form 1) was determined in simulated gastric fluid pH 1.6 (SGF), fasted state simulated intestinal fluid pH 6.5 (FaSSIF) and fed state simulated intestinal fluid pH 6.5 (FeSSIF) at ambient room temperature (20-25 C).

Row | Structure (SMILES) | stability of the form [1] | solubility ([2]; Water) [mg/mL] | solubility ([2]; fasted state simulated intestinal fluid (FaSSIF), FaSSIF (pH 6.5)) [mg/mL] | solubility ([2]; fed state simulated intestinal fluid (FeSSIF), FeSSIF (pH 6.5)) [mg/mL] | solubility ([2]; simulated gastric fluid (SGF), simulated gastric fluid, SGF (pH 1.6)) [mg/mL]
1 | CS(=O)(=O)O.O=c1cnc2ccc(=O)n3c2n1C[C@H]3CN1CCC(NCc2cc3c(cn2)OCCC3)CC1 [gepotidacin mesylate anhydrate] | unstable under ambient conditions |  |  |  | 
2 | O=c1ccc2ncc(=O)n3c2n1C[C@H]3CN1CCC(NCc2cc3c(cn2)OCCC3)CC1 [gepotidacin mesylate dihydrate (Form 1)] |  | > 180 | 113 | 99 | 175
